# Results from US9012436B2, “Lipid composition” (Diurnal Limited, priority 2008, dated 2015).
# Experiment: Solubilisation capacity of formulation systems for testosterone
# Experimental: The formulation systems as detailed in Table 1 all show significant solubilisation capacity for testosterone (>50 mg/^1) which is at least 100-fold higher than that achievable in aqueous media (<0.3 mg/g^1) and at least 5-fold higher than that achievable in single component lipidic vehicles alone (max.<10 mg/g).
# ^1N.B: For aqueous systems 1 g=1 mL; for oil systems 1 g=>1 mL
compound,measurement,setting,value
C[C@]12CC[C@H]3[C@@H](CCC4=CC(=O)CC[C@@]43C)[C@@H]1CC[C@@H]2O [testosterone],Solubility of testosterone achievable in aqueous media,aqueous media,< 0.3 mg/g
same,Solubility of testosterone achievable in single component lipidic vehicles alone,"single component lipidic vehicles, max.",< 10 mg/g
